Experimental data: patent US11707474B2, “Methods for treating acute myeloid leukemia and related conditions” (GlycoMimetics, Inc., priority 2018, dated 2023)

Columns and labels:
[1] = tested on: KG1; test: Flow cytometry, binding of E-selectin-PE conjugate to KG1 cells; type: cell-based, human; conditions: 100 nM
Description: (§1) These findings indicate that hypomethylating agents, including 5-azacytidine, may increase the adhesion of leukemic blasts in the bone marrow and therefore hinder the intended anti-leukemic effect. This could explain a source of chemoresistance, and potential for relapse, in patients treated with hypomethylating agents.

[2] = tested on: KG1 cells; test: Systemic KG1 AML model survival; type: in vivo, NSG female mice; conditions: 5 mg/kg IP days 7, 10, 13, 16, 19 alone
Protocol: The potential relevance of these in vitro observations was assessed in NSG female mice with pre-existing disseminated KG1 cells and treated with a compound of Formula (I) (40 mg/kg, IP, QD for 14 days), 5-azacytidine (5 mg/kg, IP, administered on days 7, 10, 13, 16, and 19 (5 doses total)), or the combination of both compounds. Under the conditions of the assay, the median survival time of mice treated with saline alone or a compound of Formula (I) was 69.5 and 69 days, respectively (FIG. 9). Administration of a compound of Formula (I) with 5-azacytidine increased median survival time beyond that obtained with 5-azacytidine treatment alone (>104 days versus 88 days; P=0.014, FIG. 9).

[3] = tested on: KG1 cells; test: Static adhesion of KG1 cells to E-selectin coated plates; type: cell-based, human; conditions: compared to control treated KG1 cells
Description: as §1

Nc1ncn([C@@H]2O[C@H](CO)[C@@H](O)[C@H]2O)c(=O)n1 [5-azacytidine, reference compound]
increase in cell binding of E-selectin-PE conjugate [1]: 38% | median survival time [2]: 88 days | increase in static adhesion to E-selectin coated plates [3]: 57%
